According to PubChem BioAssay (NCI):
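Step 1: Grow cells in 96-well plates. Step 2: Expose to compound for 48 hours at 5 concentrations. Step 3: Interpolate endpoints linearly; if unreached, use highest concentration. At the GI50, growth is halved. TGI is the concentration that stops growth completely.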

Legend:
Assay in all cases: NCI anticancer screen, dose series, 48 h
786-0 renal = tested on: 786-0 renal
DU-145 prostate = tested on: DU-145 prostate
NCI/ADR-RES ovarian = tested on: NCI/ADR-RES ovarian
HL-60(TB) leukemia = tested on: HL-60(TB) leukemia
HCT-15 colon = tested on: HCT-15 colon
PC-3 prostate = tested on: PC-3 prostate
UACC-62 melanoma = tested on: UACC-62 melanoma
U251 CNS = tested on: U251 CNS
HCC-2998 colon = tested on: HCC-2998 colon
IGROV1 ovarian = tested on: IGROV1 ovarian
SN12C renal = tested on: SN12C renal
T-47D breast = tested on: T-47D breast
SR leukemia = tested on: SR leukemia
BT-549 breast = tested on: BT-549 breast
COLO 205 colon = tested on: COLO 205 colon
SNB-75 CNS = tested on: SNB-75 CNS
CAKI-1 renal = tested on: CAKI-1 renal
UO-31 renal = tested on: UO-31 renal
EKVX NSCLC = tested on: EKVX NSCLC
MDA-MB-435 = tested on: MDA-MB-435
SK-MEL-2 melanoma = tested on: SK-MEL-2 melanoma
RPMI-8226 leukemia = tested on: RPMI-8226 leukemia
MDA-MB-231 breast = tested on: MDA-MB-231 breast
SK-OV-3 ovarian = tested on: SK-OV-3 ovarian
MOLT-4 leukemia = tested on: MOLT-4 leukemia
NCI-H522 lung = tested on: NCI-H522 lung
OVCAR-5 ovarian = tested on: OVCAR-5 ovarian
HS 578T breast = tested on: HS 578T breast
OVCAR-3 ovarian = tested on: OVCAR-3 ovarian
A549 NSCLC = tested on: A549 NSCLC
UACC-257 melanoma = tested on: UACC-257 melanoma
LOX IMVI melanoma = tested on: LOX IMVI melanoma
SK-MEL-28 melanoma = tested on: SK-MEL-28 melanoma
SK-MEL-5 melanoma = tested on: SK-MEL-5 melanoma
SF-268 CNS = tested on: SF-268 CNS
KM12 colon = tested on: KM12 colon
NCI-H226 lung = tested on: NCI-H226 lung
HT29 colon = tested on: HT29 colon
SNB-19 CNS = tested on: SNB-19 CNS
OVCAR-8 ovarian = tested on: OVCAR-8 ovarian
TK-10 renal = tested on: TK-10 renal
RXF 393 renal = tested on: RXF 393 renal
K-562 leukemia = tested on: K-562 leukemia
A498 renal = tested on: A498 renal
SW-620 colon = tested on: SW-620 colon
OVCAR-4 ovarian = tested on: OVCAR-4 ovarian
MDA-MB-468 breast = tested on: MDA-MB-468 breast
ACHN renal = tested on: ACHN renal
HOP-62 NSCLC = tested on: HOP-62 NSCLC
SF-295 CNS = tested on: SF-295 CNS
SF-539 CNS = tested on: SF-539 CNS
M14 melanoma = tested on: M14 melanoma
MCF7 breast = tested on: MCF7 breast
NCI-H23 lung = tested on: NCI-H23 lung
NCI-H460 lung = tested on: NCI-H460 lung
HCT-116 colon = tested on: HCT-116 colon
MALME-3M melanoma = tested on: MALME-3M melanoma
HOP-92 NSCLC = tested on: HOP-92 NSCLC
CCRF-CEM leukemia = tested on: CCRF-CEM leukemia

`CN1CCc2c(sc3ncnc(N/N=C/c4cn(-c5ccccc5)nc4-c4ccc(Cl)cc4)c23)C1` was tested, and the GI50 (786-0 renal) was 588 nM, the TGI (786-0 renal) was 18000 nM and the GI50 (DU-145 prostate) was 1410 nM. For the same compound, the TGI (DU-145 prostate) was greater than 100000 nM, the GI50 (NCI/ADR-RES ovarian) was 320 nM and the TGI (NCI/ADR-RES ovarian) was 1760 nM. It also gave a GI50 (HL-60(TB) leukemia) of 292 nM, a TGI (HL-60(TB) leukemia) of 1980 nM and a GI50 (HCT-15 colon) of 390 nM. It also gave a TGI (HCT-15 colon) greater than 100000 nM, a GI50 (PC-3 prostate) of 472 nM and a TGI (PC-3 prostate) greater than 100000 nM. It also gave a GI50 (UACC-62 melanoma) of 787 nM, a TGI (UACC-62 melanoma) of 14400 nM and a GI50 (U251 CNS) of 688 nM. It also gave a TGI (U251 CNS) greater than 54100 nM, a GI50 (HCC-2998 colon) of 500 nM and a TGI (HCC-2998 colon) of 34800 nM. It also gave a GI50 (IGROV1 ovarian) of 379 nM, a TGI (IGROV1 ovarian) of 21100 nM and a GI50 (SN12C renal) of 340 nM. The TGI (SN12C renal) was greater than 100000 nM, the GI50 (T-47D breast) was 2590 nM and the TGI (T-47D breast) was greater than 100000 nM. For the same compound, the GI50 (SR leukemia) was 2660 nM, the TGI (SR leukemia) was greater than 100000 nM and the GI50 (BT-549 breast) was 2890 nM. The TGI (BT-549 breast) was greater than 31800 nM, the GI50 (COLO 205 colon) was 406 nM and the TGI (COLO 205 colon) was greater than 100000 nM. It also gave a GI50 (SNB-75 CNS) of 13800 nM, a TGI (SNB-75 CNS) of 60800 nM and a GI50 (CAKI-1 renal) of 1320 nM. It also gave a TGI (CAKI-1 renal) greater than 66700 nM, a GI50 (UO-31 renal) of 475 nM and a TGI (UO-31 renal) of 25400 nM. It also gave a GI50 (EKVX NSCLC) of 313 nM, a TGI (EKVX NSCLC) greater than 42600 nM and a GI50 (MDA-MB-435) of 1610 nM. The TGI (MDA-MB-435) was greater than 100000 nM, the GI50 (SK-MEL-2 melanoma) was 990 nM and the TGI (SK-MEL-2 melanoma) was 24400 nM. It also gave a GI50 (RPMI-8226 leukemia) of 443 nM, a TGI (RPMI-8226 leukemia) greater than 100000 nM and a GI50 (MDA-MB-231 breast) of 468 nM. The TGI (MDA-MB-231 breast) was 32000 nM, the GI50 (SK-OV-3 ovarian) was greater than 36200 nM and the TGI (SK-OV-3 ovarian) was greater than 76100 nM. It also gave a GI50 (MOLT-4 leukemia) of 319 nM, a TGI (MOLT-4 leukemia) greater than 100000 nM and a GI50 (NCI-H522 lung) of 323 nM. For the same compound, the TGI (NCI-H522 lung) was 5380 nM, the GI50 (OVCAR-5 ovarian) was 419 nM and the TGI (OVCAR-5 ovarian) was greater than 100000 nM. The GI50 (HS 578T breast) was 15600 nM, the TGI (HS 578T breast) was greater than 89700 nM and the GI50 (OVCAR-3 ovarian) was 242 nM. For the same compound, the TGI (OVCAR-3 ovarian) was 6220 nM, the GI50 (A549 NSCLC) was 496 nM and the TGI (A549 NSCLC) was greater than 100000 nM. It also gave a GI50 (UACC-257 melanoma) of 473 nM, a TGI (UACC-257 melanoma) greater than 100000 nM and a GI50 (LOX IMVI melanoma) of 305 nM. The TGI (LOX IMVI melanoma) was 4120 nM, the GI50 (SK-MEL-28 melanoma) was 5560 nM and the TGI (SK-MEL-28 melanoma) was greater than 100000 nM. It also gave a GI50 (SK-MEL-5 melanoma) of 544 nM, a TGI (SK-MEL-5 melanoma) of 20500 nM and a GI50 (SF-268 CNS) of 678 nM. For the same compound, the TGI (SF-268 CNS) was greater than 100000 nM, the GI50 (KM12 colon) was 496 nM and the TGI (KM12 colon) was greater than 100000 nM. It also gave a GI50 (NCI-H226 lung) of 1190 nM, a TGI (NCI-H226 lung) greater than 65900 nM and a GI50 (HT29 colon) of 442 nM. The TGI (HT29 colon) was 13900 nM, the GI50 (SNB-19 CNS) was 3280 nM and the TGI (SNB-19 CNS) was greater than 57300 nM. It also gave a GI50 (OVCAR-8 ovarian) of 368 nM, a TGI (OVCAR-8 ovarian) greater than 38500 nM and a GI50 (TK-10 renal) of 2470 nM. It also gave a TGI (TK-10 renal) of 38300 nM, a GI50 (RXF 393 renal) of 3560 nM and a TGI (RXF 393 renal) of 34600 nM. It also gave a GI50 (K-562 leukemia) of 290 nM, a TGI (K-562 leukemia) greater than 100000 nM and a GI50 (A498 renal) greater than 56700 nM. For the same compound, the TGI (A498 renal) was greater than 100000 nM, the GI50 (SW-620 colon) was 387 nM and the TGI (SW-620 colon) was greater than 100000 nM. It also gave a GI50 (OVCAR-4 ovarian) of 462 nM, a TGI (OVCAR-4 ovarian) of 69900 nM and a GI50 (MDA-MB-468 breast) of 208 nM. It also gave a TGI (MDA-MB-468 breast) of 595 nM, a GI50 (ACHN renal) of 481 nM and a TGI (ACHN renal) of 20400 nM. For the same compound, the GI50 (HOP-62 NSCLC) was 724 nM, the TGI (HOP-62 NSCLC) was greater than 84300 nM and the GI50 (SF-295 CNS) was 403 nM. The TGI (SF-295 CNS) was greater than 37700 nM, the GI50 (SF-539 CNS) was 345 nM and the TGI (SF-539 CNS) was 10700 nM. The GI50 (M14 melanoma) was 598 nM, the TGI (M14 melanoma) was greater than 38700 nM and the GI50 (MCF7 breast) was 223 nM. It also gave a TGI (MCF7 breast) of 635 nM, a GI50 (NCI-H23 lung) of 326 nM and a TGI (NCI-H23 lung) of 10800 nM. The GI50 (NCI-H460 lung) was 390 nM, the TGI (NCI-H460 lung) was 30000 nM and the GI50 (HCT-116 colon) was 115 nM. It also gave a GI50 (MALME-3M melanoma) of 999 nM, a TGI (MALME-3M melanoma) greater than 100000 nM and a GI50 (HOP-92 NSCLC) of 643 nM. For the same compound, the TGI (HOP-92 NSCLC) was 49600 nM, the GI50 (CCRF-CEM leukemia) was 504 nM and the TGI (CCRF-CEM leukemia) was greater than 100000 nM.
